The subject of assay [1] is HCT-116. Briefly: Cytotoxicity against doxorubicin-sensitive HCT116 cell line by WST1 assay. Particulars: Homo sapiens. It is filed as functional, cell-based.
The test system of assay [2] is HCT-116. Briefly: Cytotoxicity against HCT116 cell line xenografted in NMRI nu/nu mouse at 15 umol/kg relative to control. It is filed as functional, Homo sapiens.
For assay [3], the system named is MCF7. The assay can be described thus: Cytotoxicity against doxorubicin-sensitive MCF7/6 cell line by WST1 assay. Particulars: Homo sapiens. It is filed as functional, cell-based.
For assay [4], the system named is NCI/ADR-RES. Briefly: Cytotoxicity against doxorubicin-resistant MCF7/Adr cell line by WST1 assay. The conditions noted are these: Homo sapiens. It counts as functional, cell-based.
The test system of assay [5] is HCT-116. Briefly: Cytotoxicity against HCT116 cell line xenografted in NMRI nu/nu mouse at 10 umol/kg relative to control. It counts as functional, Homo sapiens.
Assay [6] has as its system MES-SA/Dx5. The assay can be described thus: Cytotoxicity against doxorubicin-resistant MES-SA/dx5 cell line in presence of verapamil by WST1 assay. It counts as functional, cell-based. Particulars: Homo sapiens.
Assay [7] has as its system HCT-15. Briefly: Cytotoxicity against doxorubicin-resistant HCT15 cell line in presence of verapamil by WST1 assay. Particulars: Homo sapiens. It counts as functional, cell-based.
The test system of assay [8] is HCT-15. The assay can be described thus: Cytotoxicity against HCT15 cell line by WST1 assay. It is filed as functional, cell-based. The conditions noted are these: Homo sapiens.
In assay [9] the test system is MES-SA/Dx5. The assay can be described thus: Cytotoxicity against MES-SA/dx5 cell line by WST1 assay. It counts as functional, cell-based. The conditions noted are these: Homo sapiens.
The test system of assay [10] is HCT-116. Briefly: Cytotoxicity against doxorubicin-sensitive HCT116 cell line in presence of verapamil by WST1 assay. It counts as functional, cell-based. The conditions noted are these: Homo sapiens.
Assay [11] concerns NCI/ADR-RES. Briefly: Cytotoxicity against doxorubicin-resistant MCF7/Adr cell line in presence of verapamil by WST1 assay. It is filed as functional, cell-based. Particulars: Homo sapiens.
The subject of assay [12] is HCT-116. The assay can be described thus: Cytotoxicity against HCT116 cell line xenografted in NMRI nu/nu mouse at 6.5 umol/kg relative to control. It counts as functional, Homo sapiens.

Starred links: 1 amine or outer side, 2 acyl side, 3 side chain; linkers in the order of their positions; H or OH if unused. Non-standard residues stand in square brackets, D forms with d. Residues, ends and D or L forms follow the SMILES beside them. ξ: configuration not given here. *: point of attachment. X1 = COc1cccc2c1C(=O)c1c(O)c3c(c(O)c1C2=O)C[C@@](O)(C(=O)COC(=O)CCCN1C(=O)CC(*)C1=O)C[C@@H]3O[C@H]1C[C@H](N)[C@H](O)[C@H](C)O1; X4 = COc1cccc2c1C(=O)c1c(O)c3c(c(O)c1C2=O)C[C@@](O)(C(=O)CO)C[C@@H]3O[C@H]1C[C@H](NC(=O)CCCN2C(=O)CC(*)C2=O)[C@H](O)[C@H](C)O1; X2 = COc1cccc2c1C(=O)c1c(O)c3c(c(O)c1C2=O)C[C@@](O)(C(=O)C*)CC3O[C@H]1C[C@H](N)[C@H](O)[C@H](C)O1; X3 = COc1cccc2c1Cc1cc3c(cc1C2)C[C@@](O)(C(=O)CSCN*)C[C@@H]3O[C@H]1C[C@H](N)[C@H](O)[C@H](C)O1; CO = O=C([*:1])[*:2]; ξC = NC(CS)C(=O)O

`COc1cccc2c1C(=O)c1c(O)c3c(c(O)c1C2=O)C[C@@](O)(C(=O)COC(=O)CCCN1C(=O)CC(SCC(N)C(=O)N[C@@H](CO)C(=O)N[C@@H](CCCN=C(N)N)C(=O)N[C@@H](CCCN=C(N)N)C(=O)N[C@@H](C)C(=O)N[C@@H](CCCN=C(N)N)C(=O)N[C@@H](CCCN=C(N)N)C(=O)N[C@@H](CO)C(=O)N2CCC[C@H]2C(=O)N[C@@H](CCCN=C(N)N)C(=O)N[C@@H](Cc2c[nH]cn2)C(=O)N[C@@H](CC(C)C)C(=O)NCC(=O)N[C@@H](CO)C(=O)NCC(=O)N[C@@H](CS)C(=O)O)C1=O)C[C@@H]3O[C@H]1C[C@H](N)[C@H](O)[C@H](C)O1.O=C(O)C(F)(F)F` (stereo partly specified) (H-[ξC](X1)SRRARRSPRHLGSGC-OH): the values for the IC50 in [1], in assay [3] and in [4] were 2 µM, 9 µM and 532 µM, respectively. Also, in assay [2], the Activity was determined as 39%.

For `COc1cccc2c1C(=O)c1c(O)c3c(c(O)c1C2=O)C[C@@](O)(C(=O)CSCC(N)C(=O)N[C@@H](CO)C(=O)N[C@@H](CCCN=C(N)N)C(=O)N[C@@H](CCCN=C(N)N)C(=O)N[C@@H](C)C(=O)N[C@@H](CCCN=C(N)N)C(=O)N[C@@H](CCCN=C(N)N)C(=O)N[C@@H](CO)C(=O)N1CCC[C@H]1C(=O)N[C@@H](CCCN=C(N)N)C(=O)N[C@@H](Cc1c[nH]cn1)C(=O)N[C@@H](CC(C)C)C(=O)NCC(=O)N[C@@H](CO)C(=O)NCC(=O)N[C@@H](CS)C(=O)O)CC3O[C@H]1C[C@H](N)[C@H](O)[C@H](C)O1.O=C(O)C(F)(F)F` (stereo partly specified) (H-[ξC](X2)SRRARRSPRHLGSGC-OH), in [5], the Activity came to 55.8%. Also, the IC50 in assay [1] came to 153 µM; in assay [3], 37 µM; in [4], 121 µM.

Turning to `COc1cccc2c1C(=O)c1c(O)c3c(c(O)c1C2=O)C[C@@](O)(C(=O)CO)C[C@@H]3O[C@H]1C[C@H](NC(=O)CCCN2C(=O)CC(SCC(N)C(=O)N[C@@H](CO)C(=O)N[C@@H](CCCN=C(N)N)C(=O)N[C@@H](CCCN=C(N)N)C(=O)N[C@@H](C)C(=O)N[C@@H](CCCN=C(N)N)C(=O)N[C@@H](CCCN=C(N)N)C(=O)N[C@@H](CO)C(=O)N3CCC[C@H]3C(=O)N[C@@H](CCCN=C(N)N)C(=O)N[C@@H](Cc3c[nH]cn3)C(=O)N[C@@H](CC(C)C)C(=O)NCC(=O)N[C@@H](CO)C(=O)NCC(=O)N[C@@H](CS)C(=O)O)C2=O)[C@H](O)[C@H](C)O1` (stereo partly specified) (H-[ξC](X4)SRRARRSPRHLGSGC-OH), the IC50 worked out at 200 µM in assay [1], 114 µM in assay [3] and 625 µM in [4].

For the compound `COc1cccc2c1Cc1cc3c(cc1C2)C[C@@](O)(C(=O)CSCNC(=O)NCC(=O)N[C@@H](CCCCN)C(=O)N[C@@H](CCCN=C(N)N)C(=O)N[C@@H](CCCCN)C(=O)N[C@@H](CCCCN)C(=O)N[C@@H](CCCCN)C(=O)NCC(=O)N[C@@H](CCCCN)C(=O)N[C@@H](CC(C)C)C(=O)NCC(=O)N[C@@H](CCCCN)C(=O)N[C@@H](CCCCN)C(=O)N[C@@H](CCCN=C(N)N)C(=O)N1CCC[C@H]1C(=O)N[C@@H](CCCN=C(N)N)C(=O)N[C@@H](CO)C(=O)N[C@@H](CCCN=C(N)N)C(=O)N[C@@H](CS)C(=O)O)C[C@@H]3O[C@H]1C[C@H](N)[C@H](O)[C@H](C)O1.O=C(O)C(F)(F)F` ({X3-CO}-GKRKKKGKLGKKRPRSRC-OH), in [5], the Activity was found to be 86.2%. Further, the IC50 in assay [1] was found to be 30 µM; in assay [3], 17 µM; in [4] it was 862 µM.

Consider `COc1cccc2c1C(=O)c1c(O)c3c(c(O)c1C2=O)C[C@@](O)(C(=O)CO)C[C@@H]3O[C@H]1C[C@H](N)[C@H](O)[C@H](C)O1.O=C(O)C(F)(F)F` [DOXORUBICIN TRIFLUOROACETATE], for which the IC50 in assay [1] came to 3 µM; in [6], 21 µM; in [7], 20 µM; in assay [8], 283 µM; in assay [9], 600 µM; in [10] it was 2 µM. For the same compound, the values for the IC50 in [11] and in assay [4] were 30 µM and more than 1000 µM, respectively. This compound also had an Activity in assay [12] of 49.6%.

As to H-CVKRGLKLRHVRPRVTRMDV-OH, the IC50 in assay [1] and in assay [4] was more than 1000 µM each time.

Source of the values: ChEMBL document CHEMBL1137339, “Improved therapeutic efficacy of doxorubicin through conjugation with a novel peptide drug delivery technology (Vectocell)” (J Med Chem, 2006).
